# Data: patent US12679801B2, “Amino lipid and preparation method and application thereof” (Shenzhen MagicRNA Biotechnology Co., Ltd., priority 2022, dated 2026)
# System: BMDC primary cells
# Test: Luc mRNA LNP transfection on BMDC primary cells (Embodiment 13, Table 3)
# Format: cell-based, C57BL/6 mice
# Settings: 16 h, ONE-Glo Luciferase
# Procedure: Preparation method: the same as that described in Embodiment 7.
# Animal preparation: 6-week-old female C57BL/6 mice with the body weight about 20 g were selected. The feeding environment was an SPF stage feeding room. Animal tests were strictly performed according to the guide of the national health institute and the animal ethics requirements.
# Cell acquisition: C57BL/6 mice were killed through cervical dislocation, and were soaked for 5 min in 75% ethyl alcohol. Dissection was performed to obtain thigh and calf tibiae of the mice. Attached muscles were removed to expose sclerotin. Then, bone marrow in tibiae was blown out by using a 1 mL injector sucked with PBS. After the bone marrow was blown away, impurities were filtered away by a 50 μm filter screen. A red blood cell lysis buffer (3-4 mL) was added into an obtained filtrate. Then, after placement for 5 min, 800 g centrifugation was performed for 5 min to remove the supernatant. The obtained cells were placed into a 1640 culture medium (containing 10% fetal calf serum, 20 ng/mL GMCSF and 10 ng/ml IL4) to be resuspended, and were inoculated into a 6-well plate at an inoculation density of 100000 cells/ml culture medium. The materials were placed into a 37° C. cell incubator containing 5% CO2. Half liquid change was performed once every 2 days. Suspended cells and loose wall attached cells were collected on the seventh day, and were […], and the volume of a culture medium was 100 μL.
# Cell transfection: lipid nanoparticles coated with luciferase mRNA were added into a 96-well all-white ELISA plate laid with primary cells. The adding volume of the mRNA lipid nanoparticles in each well was controlled to be 10 μL. Then, the materials were put into a 37° C. incubator containing 5% CO2 for 16 h.
# Transfection efficiency detection: 20 μL of a substrate ONE-Glo™ Luciferase was added into each well of a 96-well all-white ELISA plate. After 1 min, detection was performed by a multifunctional or multimode microplate reader.
row,Compound,Luciferase luminescence intensity
1,CCCCCCCCCCC(COC(=O)C(CCCCCCC)CCCCCCCCC)OC(=O)CCCCCN(C)C (stereo not drawn) [E7C79A12],3.5E+ 04
2,CCCCCCCCCCCCCCC(=O)OCC(CCCCCC(CC)CC)OC(=O)C(C)CCN(C)C (stereo not drawn) [E20C10A10],1.2E+ 04
3,CCCCCCCCCCCC(COC(=O)C(CCCCCC)CCCCCCCC)OC(=O)CCCCN(C)C (stereo not drawn) [E8C71A11],5.4E+ 04
4,CCCCCCCCCCCCCCC(C)C(=O)OCC(CCCCCCCCCC)OC(=O)C(C)CCN(C)C (stereo not drawn) [E7C74A10],3.7E+ 04
5,CCCCCCCCCC(CCCCCCC)C(=O)OCC(CCCCCCC)OC(=O)C(C)CCN(C)C (stereo not drawn) [E4C79A10],1.3E+ 04
6,CCCCCCCCCCC(C)(C)C(=O)OCC(CCCCCC(CC)CC)OC(=O)CCCN(C)C (stereo not drawn) [E20C66A9],5.9E+ 04
7,CCCCCCCCCC(CCCCCCC)C(=O)OCC(CCCCCC)OC(=O)CCCCCN(C)C (stereo not drawn) [E3C79A12],6.7E+ 04
8,CCCCCCCCCCCCCCCCC(=O)OCC(OC(=O)CCCCN(C)C)C(CCCC)CCCCC (stereo not drawn) [E21C12A11],9.5E+ 04
9,"CCCCCCCCCCCCCCC(COC(=O)CCCCCCCCCCC)OC(=O)CCCN(C)C (stereo not drawn) [E11C7A9, 2-((4-(Dimethylamino)Butanoyl)Oxy)Hexadecyl Dodecanoate]",1.5E+ 04
10,CCCCCCCCCCCCCCC(C)C(=O)OCC(CCCCCCC)OC(=O)C(C)CCN(C)C (stereo not drawn) [E4C74A10],4.7E+ 04
11,CCCCCCCCCCCCCCCCC(=O)OCC(CCCCCC(CC)CC)OC(=O)C(C)CCN(C)C (stereo not drawn) [E20C12A10],9.6E+ 04
12,CCCCCCCCCCCCCC(=O)OCC(CCCCCC(CC)CC)OC(=O)CCCCN(C)C (stereo not drawn) [E20C9A11],4.0E+ 04
13,CCCCCCCCCCCCC(COC(=O)CCCCCCCCCC(C)CC)OC(=O)C(C)CCN(C)C (stereo not drawn) [E9C63A10],5.6E+ 04
14,CCCCCCCCCCCCCC(C)C(=O)OCC(CCCCCC(CC)CC)OC(=O)CCCN(C)C (stereo not drawn) [E20C72A9],4.7E+ 03
15,CCCCCCCCCCCCCCCCCC(=O)OCC(OC(=O)CCCN(C)C)C(CCCC)CCCCC (stereo not drawn) [E21C13A9],6.7E+ 04
16,CCCCCCCCCC(CCCCCCC)C(=O)OCC(CCCCCCC)OC(=O)CCCCCN(C)C (stereo not drawn) [E4C79A12],2.5E+ 04
17,CCCCCCCCCCCCCCC(C)C(=O)OCC(CCCCCCCCCC)OC(=O)CCCCN(C)C (stereo not drawn) [E7C74A11],3.2E+ 04
18,CCCCCCCCCCCCCCCC(COC(=O)CCCCCCCCCC)OC(=O)CCCCN(C)C (stereo not drawn) [E12C6A11],1.2E+ 04
19,CCCCCCCCCCCCCCCC(=O)OCC(OC(=O)C(C)CCN(C)C)C(CCCC)CCCCC (stereo not drawn) [E21C11A10],1.7E+ 04
20,CCCCCCCCCCCCCC(C)C(=O)OCC(CCCCCCCCCCC)OC(=O)CCCN(C)C (stereo not drawn) [E8C72A9],6.1E+ 04
21,CCCCCCCCCCCCCCC(C)C(=O)OCC(CCCCCCCCCCC)OC(=O)C1CCN(C)CC1 (stereo not drawn) [E8C74A23],1.3E+ 04

row,Compound,Luciferase luminescence intensity
1,CCCCCCCCCCCCCCCCC(=O)OCC(CCCCCC(CC)CC)OC(=O)CCCN(C)C (stereo not drawn) [E20C12A9],4.9E+ 04
2,CCCCCCCCCCCCCC(COC(=O)C(CCCCCCC)CCCCCCCCC)OC(=O)CCCN(C)C (stereo not drawn) [E10C79A9],1.3E+ 04
3,CCCCCCCCCC(CCCCCCC)C(=O)OCC(CCCCCCCC)OC(=O)CCCCN(C)C (stereo not drawn) [E5C79A11],3.6E+ 04
4,CCCCCCCCCCCCCCC(C)C(=O)OCC(CCCCCCCCCCC)OC(=O)CCCN(C)C (stereo not drawn) [E8C74A9],8.5E+ 04
5,CCCCCCCCCCCCC(COC(=O)C(CCCCC)CCCCC)OC(=O)C(C)CCN(C)C (stereo not drawn) [E9C57A10],3.2E+ 04
6,CCCCCCCCCCCCC(COC(=O)C(C)(C)CCCCCCCC)OC(=O)CCCCN(C)C (stereo not drawn) [E9C58A11],3.5E+ 04
7,CCCCCCCCCCCCCCC(COC(=O)C(CCC)CCCCCCCC)OC(=O)CCCCN(C)C (stereo not drawn) [E11C62A11],4.1E+ 04
8,CCCCCCCCCC(CCCCCCC)C(=O)OCC(CCCCCCC)OC(=O)CCCN(C)C (stereo not drawn) [E4C79A9],2.2E+ 04
9,CCCCCCCCCCCCCCC(C)C(=O)OCC(CCCCCCCCC)OC(=O)CCCCN(C)C (stereo not drawn) [E6C74A11],4.5E+ 04
10,CCCCCCCCCCCCCCCC(=O)OCC(CCCCCC(CC)CC)OC(=O)C(C)CCN(C)C (stereo not drawn) [E20C11A10],4.5E+ 04
11,C=CCCCCC(COC(=O)C(CCCCCCC)CCCCCCCCC)OC(=O)CCCCN(C)C (stereo not drawn) [E15C79A11],3.0E+ 04
12,CCC(CC)CCCCCC(COC(=O)CCCCCCCCCCCC(C)C)OC(=O)CCCN(C)C (stereo not drawn) [E20C67A9],9.5E+ 03
13,"CCCCCCCC/C=C/CCCCCCCC(=O)OCC(CCCCCCCC)OC(=O)C1CCN(C)CC1 (stereo not drawn) [E5C82A23, 1-(Octadec-9-Enoyloxy) Decan-2-Yl 1-Methylpiperidine-4-Carboxylate]",1.4E+ 04
14,CCCCCCCCCCCCCCCCC(=O)OCC(OC(=O)C(C)CCN(C)C)C(CCCC)CCCCC (stereo not drawn) [E21C12A10],8.9E+ 04
15,CCCCCCCCC(CCCCCC)C(=O)OCC(OC(=O)C1CCN(C)CC1)C(CCCC)CCCCC (stereo not drawn) [E21C71A23],1.9E+ 04
16,CCCCCCCCC(COC(=O)C(CCCCCC)CCCCCCCC)OC(=O)CCCCN(C)C (stereo not drawn) [E5C71A11],4.6E+ 04
17,CCCCCCCCCCCCCCC(=O)OCC(CCCCCC(CC)CC)OC(=O)CCCCN(C)C (stereo not drawn) [E20C10A11],1.9E+ 04
18,CCCCCCCCCCC(COC(=O)C(CCCCCCC)CCCCCCCCC)OC(=O)CCCCN(C)C (stereo not drawn) [E7C79A11],4.2E+ 04
19,CCCCCCCCCC(CCCCCCC)C(=O)OCC(CCCCCC)OC(=O)C(C)CCN(C)C (stereo not drawn) [E3C79A10],7.4E+ 04
20,CCCCCCCCCC(COC(=O)C(CCCCCCC)CCCCCCCCC)OC(=O)CCCCN(C)C (stereo not drawn) [E6C79A11],5.4E+ 04
21,CCCCCCCCCCCCC(COC(=O)C(CCCC)CCCCCC)OC(=O)C(C)CCN(C)C (stereo not drawn) [E9C56A10],8.8E+ 04

row,Compound,Luciferase luminescence intensity
1,CCCCCCCCCCCCCCC(C)C(=O)OCC(CCCCCCCC)OC(=O)C(C)CCN(C)C (stereo not drawn) [E5C74A10],2.9E+ 04
2,CCCCCCCCCCCCC(COC(=O)CCCCCCCCCCCC(C)C)OC(=O)C(C)CCN(C)C (stereo not drawn) [E9C67A10],7.8E+ 04
3,CCCCCCCCCCCCCCCCC(=O)OCC(OC(=O)CCCN(C)C)C(CCCC)CCCCC (stereo not drawn) [E21C12A9],5.4E+ 04
4,CCCCCCCCCCCCCCC(COC(=O)C(CC)CCCCCCCCC)OC(=O)CCCCN(C)C (stereo not drawn) [E11C60A11],3.3E+ 04
5,CCCCCCCCCCCCCCC(=O)OCC(CCCCCC(CC)CC)OC(=O)CCCN(C)C (stereo not drawn) [E20C10A9],4.8E+ 04
6,CCCCCCCCCCCCCCCCCC(=O)OCC(OC(=O)CCCCN(C)C)C(CCCC)CCCCC (stereo not drawn) [E21C13A11],6.4E+ 04
7,CCCCCCCCCCC(COC(=O)C(CCCCCC)CCCCCCCC)OC(=O)CCCCN(C)C (stereo not drawn) [E7C71A11],4.4E+ 04
8,CCCCCCCCCCCCCCC(C)C(=O)OCC(CCCCCCCCC)OC(=O)C(C)CCN(C)C (stereo not drawn) [E6C74A10],1.1E+ 04
9,CCCCCCCCCCCCCCC(C)C(=O)OCC(CCCCCCCCCCCCC)OC(=O)CCCN(C)C (stereo not drawn) [E10C74A9],1.3E+ 04
10,C=CCCCCC(COC(=O)C(CCCCCCC)CCCCCCCCC)OC(=O)C(C)CCN(C)C (stereo not drawn) [E15C79A10],8.9E+ 04
11,CCCCCCCCCCCCCCCCC(=O)OCC(CCCCCC(CC)CC)OC(=O)C1CCN(C)CC1 (stereo not drawn) [E20C12A23],1.7E+ 04
12,C=CCCCCC(COC(=O)C(CCCCCCC)CCCCCCCCC)OC(=O)CCCCCN(C)C (stereo not drawn) [E15C79A12],4.4E+ 04
13,CCCCCCC(CCCCCC)C(=O)OCC(CCCCCC(CC)CC)OC(=O)CCCN(C)C (stereo not drawn) [E20C64A9],3.0E+ 04
14,CCCCCCCCCCCC(COC(=O)C(CCCCCC)CCCCCCCC)OC(=O)C1CCN(C)CC1 (stereo not drawn) [E8C71A23],1.5E+ 04
15,CCCCCCCCCCCCCCCC(COC(=O)C(C)CCCCCCCCCCCCCC)OC(=O)CCCCN(C)C (stereo not drawn) [E12C74A11],1.1E+ 04
16,CCCCCCCCCC(CCCCCCC)C(=O)OCC(CCCCCCC)OC(=O)CCCCN(C)C (stereo not drawn) [E4C79A11],3.4E+ 04
17,CCCCCCCCCC(CCCCCCC)C(=O)OCC(CCCCCC)OC(=O)CCCCN(C)C (stereo not drawn) [E3C79A11],9.0E+ 04
18,CCCCCCCCCCCCCCCCCCC(=O)OCC(OC(=O)CCCN(C)C)C(CCCC)CCCCC (stereo not drawn) [E21C14A9],4.5E+ 04
19,CCCCCCCCCCCCCCCC(=O)OCC(OC(=O)CCCCN(C)C)C(CCCC)CCCCC (stereo not drawn) [E21C11A11],4.7E+ 04
20,CCCCCCCCC(CCCCCC)C(=O)OCC(CCCCCC(CC)CC)OC(=O)CCCN(C)C (stereo not drawn) [E20C71A9],6.6E+ 04
21,CCCCCCCCCCCCCCCC(COC(=O)C(CCCCCC)CCCCCC)OC(=O)C1CCN(C)CC1 (stereo not drawn) [E12C64A23],1.8E+ 04
